Data published in BindingDB's records for doi:10.1021/jm00137a012 (1981).

What follows are compounds tested against T1, Dihydrofolate reductase (Bos taurus, UniProt P00376) (assay: Inhibition of dihydrofolate reductase from bovine liver).
T1 sequence (P00376 whole entry): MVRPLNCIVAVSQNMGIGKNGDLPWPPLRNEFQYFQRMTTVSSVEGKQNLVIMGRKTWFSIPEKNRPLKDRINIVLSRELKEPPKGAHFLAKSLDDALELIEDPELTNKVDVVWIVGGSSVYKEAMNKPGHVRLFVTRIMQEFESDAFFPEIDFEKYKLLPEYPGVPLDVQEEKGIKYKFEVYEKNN
A Ki of 15.8 µM was found for `Cc1ccc(Cc2cnc(N)nc2N)cc1` in this work.
A Ki of 3.24 µM was found for `COCc1cccc(Cc2cnc(N)nc2N)c1` in this work.
A Ki of 7.08 µM was found for `COc1ccc(Cc2cnc(N)nc2N)cc1OC` [Diaveridine] in this work.
A Ki of 3.8 µM was found for `Nc1ncc(Cc2ccc(OC(F)(F)F)cc2)c(N)n1` in this work.
A Ki of 6.92 µM was found for `CC(=O)Nc1ccc(Cc2cnc(N)nc2N)cc1[N+](=O)[O-]` in this work.
A Ki of 13.2 µM was found for `Nc1ncc(Cc2cccc(O)c2)c(N)n1` [3-(2,4-Diamino-pyrimidin-5-ylmethyl)-phenol] in this work.
A Ki of 13.2 µM was found for `COCCOc1c(OC)cc(Cc2cnc(N)nc2N)cc1OC` [5-[3,5-Dimethoxy-4-(2-methoxy-ethoxy)-benzyl]-pyrimidine-2,4-diamine] in this work.
A Ki of 2.63 µM was found for `CS(=O)(=O)Oc1cccc(Cc2cnc(N)nc2N)c1` in this work.
A Ki of 50.1 µM was found for `Nc1ncc(Cc2cc(CO)cc(CO)c2)c(N)n1` in this work.
A Ki of 1.38 µM was found for `CCCCOCc1cccc(Cc2cnc(N)nc2N)c1` in this work.
A Ki of 0.708 µM was found for `Nc1ncc(Cc2cccc(I)c2)c(N)n1` in this work.
A Ki of 1.82 µM was found for `CCCCOc1ccc(Cc2cnc(N)nc2N)cc1` in this work.
A Ki of 2.95 µM was found for `Nc1ncc(Cc2cccc(C(F)(F)F)c2)c(N)n1` in this work.
A Ki of 6.31 µM was found for `Nc1ncc(Cc2cccc(CO)c2)c(N)n1` in this work.
A Ki of 26.9 µM was found for `Nc1ccc(Cc2cnc(N)nc2N)cc1` in this work.
